What follows are compounds tested against T1, Chk1 (Homo sapiens, UniProt O14757) (assay: Chk1 kinase assay: incorporation of γ-33P ATP into immobilized myelin basic protein). Conditions: Table 11, Chk1 only; class symbols A-D; read-out: Chk1 IC50.
T1 construct: purchased Upstate Biotechnology
T1 sequence (O14757 1-476): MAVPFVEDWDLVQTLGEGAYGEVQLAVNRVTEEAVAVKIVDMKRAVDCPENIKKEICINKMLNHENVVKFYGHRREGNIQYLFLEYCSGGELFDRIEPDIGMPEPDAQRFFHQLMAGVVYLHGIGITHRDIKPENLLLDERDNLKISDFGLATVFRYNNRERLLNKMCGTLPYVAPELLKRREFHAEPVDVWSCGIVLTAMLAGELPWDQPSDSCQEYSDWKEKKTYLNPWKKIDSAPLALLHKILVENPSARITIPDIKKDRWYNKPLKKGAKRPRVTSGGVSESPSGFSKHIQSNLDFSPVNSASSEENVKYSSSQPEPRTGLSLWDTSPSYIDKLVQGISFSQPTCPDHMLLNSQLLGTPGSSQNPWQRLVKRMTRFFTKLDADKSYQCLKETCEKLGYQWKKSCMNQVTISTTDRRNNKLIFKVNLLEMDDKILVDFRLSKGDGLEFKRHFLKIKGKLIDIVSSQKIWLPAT
Assay type: biochemical
Method: Chk1 and Chk2 assays were performed by measuring incorporation of γ-^33P ATP into immobilized myelin basic protein (MBP). High binding white 384 well plates (Greiner) were coated with MBP (Sigma #M-1891) by incubation of 60 ul/well of 20 μg/ml MBP in Tris-buffered saline (TBS; 50 mM Tris pH 8.0, 138 mM NaCl, 2.7 mM KCl) for 24 hours at 4° C. Plates were washed 3× with 100 μl TBS. Kinase reactions were carried out in a total volume of 34 μl in kinase buffer (5 mM Hepes pH 7.6, 15 mM NaCl, 0.01% bovine gamma globulin (Sigma #I-5506), 10 mM MgCl2, 1 mM DTT, 0.02% TritonX-100). Compound dilutions were performed in DMSO and added to assay wells to a final DMSO concentration of 1%. Each data point was measured in duplicate, and at least two duplicate assays were performed for each individual compound determination. Chk1 and Chk2 enzymes (Upstate Biotechnology) were added to final concentrations of 10 nM (Chk1) or 20 nM (Chk2). A mixture of unlabeled ATP and γ-^33P ATP was added to start the reaction (2×10^6 cpm of γ-^33P ATP per well (3000 Ci/mmole) and either 10 μM or 30 μM unlabeled ATP (for Chk1 and Chk2 assays respectively). The reaction was carried out for 1 hour at room temperature with shaking. Plates were washed 7× with TBS, followed by the addition of 50 μl/well scintillation fluid (Wallac). Plates were read using a Wallac Trilux counter. This is only one format of such assays, various other formats are possible, as known to those skilled in the art.
The above assay procedure can be used to determine the IC50 for inhibition and/or the inhibition constant Ki. The IC50 is defined as the concentration of compound required to reduce the enzyme activity by 50% under the conditions of the assay. […] The Ki for a compound may be determined from the IC50 based on three assumptions. First, only one compound molecule binds to the enzyme and there is no cooperativity. […] Third, the enzymatic rate of the enzyme-inhibitor complex is zero. The rate (i.e., compound concentration) data are fitted to the equation: […]

Row | IC50 [nM] | Compound
1 | < 50 | COc1ccc(C(=O)NCc2cccc(-c3cnc(N)c(C(=O)N[C@H]4CCCNC4)n3)c2)cc1 [Example 932, 3-amino-6-{3-[({[4-(methyloxy)phenyl]carbonyl}amino)methyl]phenyl}-N-[(3S)-piperidin-3-yl]pyrazine-2-carboxamide]
2 | < 50 | Nc1ncc(-c2cccc(C(=O)NCc3ccc(F)cc3Cl)c2)nc1C(=O)N[C@H]1CCCNC1 [Example 1002, 3-amino-6-[3-({[(2-chloro-4-fluorophenyl)methyl]amino}carbonyl)phenyl]-N-[(3S)-piperidin-3-yl]pyrazine-2-carboxamide]
3 | < 50 | Nc1ncc(-c2cccc(OCCN3CCN(C(=O)OCc4ccccc4)CC3)c2)nc1C(=O)N[C@H]1CCCNC1 [Example 965, phenylmethyl 4-(2-{[3-(5-amino-6-{[(3S)-piperidin-3-ylamino]carbonyl}pyrazin-2-yl)phenyl]oxy}ethyl)piperazine-1-carboxylate]
4 | < 50 | Nc1ncc(-c2cccc(C(=O)NCc3cccc(F)c3)c2)nc1-c1nnc([C@H]2CCCNC2)[nH]1 [Example 835, 3-(5-amino-6-{5-[(3S)-piperidin-3-yl]-4H-1,2,4-triazol-3-yl}pyrazin-2-yl)-N-[(3-fluorophenyl)methyl]benzamide]

Same assay, conditions: Table 11; Chk1 only; read-out: Chk1 IC50

Row | Compound | IC50 [nM]
5 | Nc1ncc(-c2cccc(CN[C@H]3CCc4ccccc43)c2)nc1-c1nnc[nH]1 [Example 536, 5-(3-{[(1S)-2,3-dihydro-1H-inden-1-ylamino]methyl}phenyl)-3-(4H-1,2,4-triazol-3-yl)pyrazin-2-amine] | 50 to 1000
6 | CNC(=O)c1nc(-c2cccc(CNC3CCc4c(Cl)cccc43)c2)cnc1N (centres unmarked) [Example 487, 3-amino-6-(3-{[(4-chloro-2,3-dihydro-1H-inden-1-yl)amino]methyl}phenyl)-N-methylpyrazine-2-carboxamide] | < 50
7 | CNC(=O)c1nc(-c2cccc(CNC3CCc4cc(Cl)ccc43)c2)cnc1N (centres unmarked) [Example 477, 3-amino-6-(3-{[(5-chloro-2,3-dihydro-1H-inden-1-yl)amino]methyl}phenyl)-N-methylpyrazine-2-carboxamide] | < 50
8 | Nc1ncc(-c2cccc(C(=O)N[C@@H]3c4ccccc4C[C@@H]3O)c2)nc1-c1nnc([C@H]2CCCNC2)[nH]1 [Example 775, 3-(5-amino-6-{5-[(3S)-piperidin-3-yl]-4H-1,2,4-triazol-3-yl}pyrazin-2-yl)-N-[(1R,2S)-2-hydroxy-2,3-dihydro-1H-inden-1-yl]benzamide] | < 50
9 | CNC(=O)c1cc(-c2cccc(CNC3CCc4cc(F)cc(F)c43)c2)cnc1N (centres unmarked) [Example 524, 2-amino-5-(3-{[(5,7-difluoro-2,3-dihydro-1H-inden-1-yl)amino]methyl}phenyl)-N-methylpyridine-3-carboxamide] | 50 to 1000
10 | N=C(NNc1ccncc1)c1nc(-c2cccc(C(=O)N[C@@H]3CCc4ccccc43)c2)cnc1N [Example 748, 3-{5-amino-6-[imino(2-pyridin-4-ylhydrazino)methyl]pyrazin-2-yl}-N-[(1R)-2,3-dihydro-1H-inden-1-yl]benzamide] | 1000 to 10000
11 | CNC(=O)c1nc(-c2cc(C(=O)N[C@H]3CCc4ccccc43)cc(C(=O)OC)c2)cnc1N [Example 790, methyl 3-{5-amino-6-[(methylamino)carbonyl]pyrazin-2-yl}-5-{[(1S)-2,3-dihydro-1H-inden-1-ylamino]carbonyl}benzoate] | 50 to 1000
12 | Nc1ncc(-c2cccc(CN[C@H]3CCc4ccccc43)c2)nc1-c1cnco1 [Example 528, 5-(3-{[(1S)-2,3-dihydro-1H-inden-1-ylamino]methyl}phenyl)-3-(1,3-oxazol-5-yl)pyrazin-2-amine] | 1000 to 10000
13 | Nc1ncc(-c2cccc(C(=O)N[C@@H]3c4ccccc4C[C@@H]3O)c2)nc1C(=O)NCCc1c[nH]cn1 [Example 751, 3-amino-6-[3-({[(1R,2S)-2-hydroxy-2,3-dihydro-1H-inden-1-yl]amino}carbonyl)phenyl]-N-[2-(1H-imidazol-4-yl)ethyl]pyrazine-2-carboxamide] | 50 to 1000
14 | CNC(=O)c1nc(-c2cc(C(=O)NC3CCNC3)cc(C(=O)N[C@H]3CCc4ccccc43)c2)cnc1N (stereo partly drawn) [Example 791, 5-{5-amino-6-[(methylamino)carbonyl]pyrazin-2-yl}-N-[(1S)-2,3-dihydro-1H-inden-1-yl]-N′-pyrrolidin-3-ylbenzene-1,3-dicarboxamide] | 50 to 1000

Next, values leading:

Row | IC50 [nM] | Compound
15 | 1000 to 10000 | Nc1ncc(-c2cccc(C(=O)NCc3ccccc3)c2)nc1C(=O)N[C@H]1CCN(C2CCNCC2)C1 [Example 687, 3-amino-6-(3-{[(phenylmethyl)amino]carbonyl}phenyl)-N-[(3S)-1-piperidin-4-ylpyrrolidin-3-yl]pyrazine-2-carboxamide]
16 | 1000 to 10000 | Nc1ncc(-c2cccc(C(=O)NCc3ccccc3)c2)nc1C(=O)N[C@@H](CCC(=O)O)C(=O)O [Example 594, N-{[3-amino-6-(3-{[(phenylmethyl)amino]carbonyl}phenyl)pyrazin-2-yl]carbonyl}glutamic acid]
17 | < 50 | CC(C)(C)OC(=O)N1CCC[C@H](NC(=O)c2nc(-c3cccc(C(=O)N[C@@H]4c5ccccc5C[C@@H]4O)c3)cnc2N)C1 [Example 777, 1,1-dimethylethyl (3S)-3-[({3-amino-6-[3-({[(1R,2S)-2-hydroxy-2,3-dihydro-1H-inden-1-yl]amino}carbonyl)phenyl]pyrazin-2-yl}carbonyl)amino]piperidine-1-carboxylate]
18 | 1000 to 10000 | C[C@H](NC(=O)c1cccc(-c2cnc(N)c(C(=O)N[C@H]3CCN(C(=O)OC(C)(C)C)C3)n2)c1)c1ccccc1 [Example 713, 1,1-dimethylethyl (3S)-3-[({3-amino-6-[3-({[(1S)-1-phenylethyl]amino}carbonyl)phenyl]pyrazin-2-yl}carbonyl)amino]pyrrolidine-1-carboxylate]
19 | ≥ 10000 | Nc1ncc(-c2cccc(C(=O)NCc3ccccc3)c2)nc1C(=O)N1CCN(c2ccc(F)cc2)CC1 [Example 574, 3-(5-amino-6-{[4-(4-fluorophenyl)piperazin-1-yl]carbonyl}pyrazin-2-yl)-N-(phenylmethyl)benzamide]

Same assay, conditions: read-out: Chk1 IC50

Row | IC50 [nM] | Compound
20 | 50 to 1000 | CNC(=O)c1nc(-c2cccc(C(=O)NCc3ccco3)c2)cnc1N [Example 203, 3-amino-6-(3-{[(furan-2-ylmethyl)amino]carbonyl}phenyl)-N-methylpyrazine-2-carboxamide]
21 | 50 to 1000 | CNC(=O)c1nc(-c2cccc(C(=O)NCc3c(OC)cc(OC)cc3OC)c2)cnc1N [Example 258, 3-amino-N-methyl-6-{3-[({[2,4,6-tris(methyloxy)phenyl]methyl}amino)carbonyl]phenyl}pyrazine-2-carboxamide]
22 | 50 to 1000 | CNC(=O)c1nc(-c2cccc(NC(=O)Cc3ccc(C(F)(F)F)cc3)c2)cnc1N [Example 211, 3-amino-N-methyl-6-[3-({[4-(trifluoromethyl)phenyl]acetyl}amino)phenyl]pyrazine-2-carboxamide]
23 | 1000 to 10000 | CNC(=O)c1nc(-c2cccc(C(=O)N(C)C)c2)cnc1N [Example 86, 3-amino-6-{3-[(dimethylamino)carbonyl]phenyl}-N-methylpyrazine-2-carboxamide]
24 | 50 to 1000 | CNC(=O)c1nc(-c2cccc(C(=O)NCc3cccc(OC)c3OC)c2)cnc1N [Example 113, 3-amino-6-{3-[({[2,3-bis(methyloxy)phenyl]methyl}amino)carbonyl]phenyl}-N-methylpyrazine-2-carboxamide]
25 | 50 to 1000 | CNC(=O)c1nc(-c2cccc(C(=O)N[C@@H]3CCN(Cc4c(Cl)cccc4Cl)C3)c2)cnc1N [Example 362, 3-amino-6-{3-[({(3R)-1-[(2,6-dichlorophenyl)methyl]pyrrolidin-3-yl}amino)carbonyl]phenyl}-N-methylpyrazine-2-carboxamide]
26 | 50 to 1000 | CCCN(CCOc1cccc(-c2cnc(N)c(C(=O)NC)n2)c1)CC1CC1 [Example 186, 3-amino-6-[3-({2-[(cyclopropylmethyl)(propyl)amino]ethyl}oxy)phenyl]-N-methylpyrazine-2-carboxamide]

From patent publication US7704995B2 (Exelixis, Inc., priority 2003, dated 2010)
